Data published in BindingDB's records for doi:10.1021/jm000409z (Dupont Pharmaceuticals, 2001).
pIC50: −log10 of the molar value.

Target: Complement factor I (Homo sapiens) (UniProt P05156)
Assay: In vitro activity against human Complement factor I

Sequence of Complement factor I (Homo sapiens) (P05156 whole entry, looked up): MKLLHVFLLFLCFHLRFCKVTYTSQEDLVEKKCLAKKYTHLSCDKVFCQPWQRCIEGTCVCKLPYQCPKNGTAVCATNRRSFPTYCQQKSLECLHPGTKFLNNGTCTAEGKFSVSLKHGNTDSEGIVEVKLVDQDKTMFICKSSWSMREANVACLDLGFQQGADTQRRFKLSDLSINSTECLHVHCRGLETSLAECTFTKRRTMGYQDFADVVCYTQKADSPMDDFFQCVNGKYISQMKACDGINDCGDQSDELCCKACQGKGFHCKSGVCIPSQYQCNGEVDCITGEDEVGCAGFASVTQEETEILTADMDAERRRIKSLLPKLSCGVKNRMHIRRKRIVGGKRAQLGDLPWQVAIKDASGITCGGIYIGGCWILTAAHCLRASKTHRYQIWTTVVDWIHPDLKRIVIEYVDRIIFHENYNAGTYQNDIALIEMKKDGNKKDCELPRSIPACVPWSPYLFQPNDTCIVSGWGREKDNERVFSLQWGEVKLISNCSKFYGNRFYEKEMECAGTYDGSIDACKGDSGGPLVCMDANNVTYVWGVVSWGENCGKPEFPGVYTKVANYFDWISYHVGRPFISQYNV

**Q.** `CS(=O)(=O)c1ccccc1-c1ccc(NC(=O)c2cc(C(F)(F)F)nn2-c2cccc(CN)c2)c(F)c1` was tested. Which pIC50 did it give?
**A.** The pIC50 was 4.36.
